Source: patent publication US20180282331A1, “7-Oxo -6-(sulfooxy)- 1,6-diazabicyclo [3.2.1] octane containing compounds and their use in treatment of bacterial infections (changed by PCT to: 7-OXO -6-(SULFOOXY)- 1,6-DIAZABICYCLO [3.2.1] OCTANE CONTAINING COMPOUNDS AND THEIR USE IN TREATMENT OF BACTERIAL INFECTIONS” (WOCKHARDT LIMITED, priority 2015, published 2018)

Assays:
Experiment in all cases: MIC, agar dilution (MHA), compound alone
Format in all cases: cell-based
E. coli NCTC 13352 = details: Escherichia coli, NCTC13352; E. coli NCTC 13352; compound alone; MHA, 35° C., 18 hours; read-out: MIC
Procedure: (§1) The biological activity of representative compounds according to the invention against various bacterial strains was investigated. The Minimum Inhibitory Concentration (MIC) determination for the combinations was carried out in Muller Hinton Agar (MHA) (BD, USA) according to Clinical and Laboratory Standards Institute (CLSI) recommendations, (Clinical and Laboratory Standards Institute (CLSI), Performance Standards for Antimicrobial Susceptibility Testing, 20th Informational Supplement, M 100-S20, Volume 30, No. 1, 2010). In short, the test strains were adjusted to deliver about 10^4 CFU per spot with a multipoint inoculator (Applied Quality Services, UK). The plates were poured with MHA containing doubling concentration range of representative compounds according to present invention. The plates were inoculated and were incubated at 35° C. for 18 hours. […] The Table 5 depicts the antibacterial activity profile of compounds according to present invention against various multidrug resistant bacterial strains.

K. pneumoniae H521 = details: Klebsiella pneumoniae; K. pneumoniae H521; compound alone; MHA, 35° C., 18 hours; read-out: MIC
Procedure: as §1

K. pneumoniae H525 = details: Klebsiella pneumoniae; K. pneumoniae H525; compound alone; MHA, 35° C., 18 hours; read-out: MIC
Procedure: as §1

E. coli 7 MP = details: Escherichia coli; E. coli 7 MP; compound alone; MHA, 35° C., 18 hours; read-out: MIC
Procedure: as §1

[1] = system: K. pneumoniae ATCC 700603; details: Klebsiella pneumoniae, ATCC700603; K. pneumoniae ATCC 700603; compound alone; MHA, 35° C., 18 hours; read-out: MIC
Procedure: as §1

E. coli M 50 = details: Escherichia coli, M50; E. coli M 50; compound alone; MHA, 35° C., 18 hours; read-out: MIC
Procedure: as §1

E. coli NCTC 13353 = details: Escherichia coli, NCTC13353; E. coli NCTC 13353; compound alone; MHA, 35° C., 18 hours; read-out: MIC
Procedure: as §1

SMILES	MIC (E. coli NCTC 13352) [µg/mL]	MIC (K. pneumoniae H521) [µg/mL]	MIC (K. pneumoniae H525) [µg/mL]	MIC (E. coli 7 MP) [µg/mL]	MIC [1] [µg/mL]	MIC (E. coli M 50) [µg/mL]	MIC (E. coli NCTC 13353) [µg/mL]
O=C(Cn1ccnc1CO)NNC(=O)[C@@H]1CC[C@@H]2CN1C(=O)N2OS(=O)(=O)[O-].[Na+] [Example 42]	1	2	1	2	> 32	0.5	0.5
Nc1nnnn1CC(=O)NNC(=O)[C@@H]1CC[C@@H]2CN1C(=O)N2OS(=O)(=O)O [Example 24, (2S,5R)-N′-[(5-amino-1H-tetrazol-1-yl)acetyl]-7-oxo-6-(sulfooxy)-1,6-diazabicyclo[3.2.1]octane-2-carbohydrazide]	1	2	2	2	> 32	0.5	0.5
CCOC(=O)Cc1nnn(CC(=O)NNC(=O)[C@@H]2CC[C@@H]3CN2C(=O)N3OS(=O)(=O)[O-])n1.[Na+] [Example 13]	1	32	32	2	> 32	2	1
O=C(Cn1nnc(CCO)n1)NNC(=O)[C@@H]1CC[C@@H]2CN1C(=O)N2OS(=O)(=O)[O-].[Na+] [Example 39]	0.5	1	2	1	> 32	0.5	0.5
O=C(Cn1ccnc1CCO)NNC(=O)[C@@H]1CC[C@@H]2CN1C(=O)N2OS(=O)(=O)[O-].[Na+] [Example 40]	2	4	2	4	> 32	2	1
O=C(Cn1nccn1)NNC(=O)[C@@H]1CC[C@@H]2CN1C(=O)N2OS(=O)(=O)[O-].[Na+] [Example 6]	1	2	2	2	> 32	1	1
CCOC(=O)c1nccn1CC(=O)NNC(=O)[C@@H]1CC[C@@H]2CN1C(=O)N2OS(=O)(=O)[O-].[Na+] [Example 21]	2	8	8	4	> 32	2	2
O=C(Cn1cccc1)NNC(=O)[C@@H]1CC[C@@H]2CN1C(=O)N2OS(=O)(=O)[O-].[Na+] [Example 18]	0.5	1	1	1	> 32	0.5	0.25
O=C(NOCCn1cncn1)[C@@H]1CC[C@@H]2CN1C(=O)N2OS(=O)(=O)O [Example 48]	16	> 32	32	> 32	> 32	8	8
NC(=O)Cc1nnn(CC(=O)NNC(=O)[C@@H]2CC[C@@H]3CN2C(=O)N3OS(=O)(=O)[O-])n1.[Na+] [Example 14]	1	4	4	1	> 32	0.5	1
O=C(NOCCn1cnnn1)[C@@H]1CC[C@@H]2CN1C(=O)N2OS(=O)(=O)[O-].[Na+] [Example 51]	8	> 32	> 32	16	> 32	4	4
NC(=O)c1nnn(CC(=O)NNC(=O)[C@@H]2CC[C@@H]3CN2C(=O)N3OS(=O)(=O)[O-])n1.[Na+] [Example 16]	1	2	2	2	> 32	1	1
O=C(Cn1ccnn1)NNC(=O)[C@@H]1CC[C@@H]2CN1C(=O)N2OS(=O)(=O)[O-].[Na+] [Example 7]	0.5	1	1	1	> 32	0.5	0.5
NC(=O)c1nnnn1CC(=O)NNC(=O)[C@@H]1CC[C@@H]2CN1C(=O)N2OS(=O)(=O)[O-].[Na+] [Example 17]	0.25	1	1	0.5	> 32	0.25	0.25
O=C(Cn1ncnn1)NNC(=O)[C@@H]1CC[C@@H]2CN1C(=O)N2OS(=O)(=O)[O-].[Na+] [Example 4]	0.5	1	1	1	> 32	0.5	0.5
CCOC(=O)c1nnnn1CC(=O)NNC(=O)[C@@H]1CC[C@@H]2CN1C(=O)N2OS(=O)(=O)[O-].[Na+] [Example 5]	0.5	2	2	2	> 32	1	0.5
O=C(NOCCn1ncnn1)[C@@H]1CC[C@@H]2CN1C(=O)N2OS(=O)(=O)[O-].[Na+] [Example 50]	8	> 32	> 32	32	> 32	8	8
NCCc1nnn(CC(=O)NNC(=O)[C@@H]2CC[C@@H]3CN2C(=O)N3OS(=O)(=O)O)n1 [Example 28]	0.5	0.5	0.5	1	> 32	0.25	0.25
CCOC(=O)Cc1nnnn1CC(=O)NNC(=O)[C@@H]1CC[C@@H]2CN1C(=O)N2OS(=O)(=O)[O-].[Na+] [Example 12]	0.5	4	4	2	> 32	2	1
O=C(Cn1ccnc1COC(=O)[C@@H]1CCCN1)NNC(=O)[C@@H]1CC[C@@H]2CN1C(=O)N2OS(=O)(=O)O [Example 34]	1	2	1	4	> 32	1	1
NCCCc1nnn(CC(=O)NNC(=O)[C@@H]2CC[C@@H]3CN2C(=O)N3OS(=O)(=O)O)n1 [Example 30]	0.5	0.5	0.5	1	> 32	0.5	0.25
NCc1nnnn1CC(=O)NNC(=O)[C@@H]1CC[C@@H]2CN1C(=O)N2OS(=O)(=O)O [Example 25]	1	1	1	2	> 32	0.5	1
